{"source": "ChEMBL document CHEMBL3600310", "about": "(J Med Chem, 2015)", "key": {"HCT-116": {"test_system": "HCT-116", "assay": "Cytotoxicity against human HCT116 cells after 72 hrs by MTT assay", "format": "functional, cell-based", "details": "HCT-116, 72 h"}, "A549": {"test_system": "A549", "assay": "Cytotoxicity against human A549 cells after 72 hrs by MTT assay", "format": "functional, cell-based", "details": "A549, 72 h"}, "Mus musculus": {"test_system": "Mus musculus", "assay": "Toxicity in human A549 cells xenografted BALB/C mouse assessed as change in body weight at 0.5 mg/kg, ip for 5 days", "format": "organism-based", "details": "in vivo, 120 h"}, "MDA-MB-435": {"test_system": "MDA-MB-435", "assay": "Cytotoxicity against human MDA-MB-435 cells after 72 hrs by MTT assay", "format": "functional, cell-based", "details": "MDA-MB-435, 72 h"}}, "data": [{"smiles": "CC[C@@]1(O)C(=O)OCc2c1cc1n(c2=O)Cc2cc3c(CN(C)C)c(O)ccc3nc2-1", "note": "[TOPOTECAN]", "values": [{"measurement": "IC50", "setting": "HCT-116", "result": 0.7, "unit": "µM"}, {"measurement": "IC50", "setting": "A549", "result": 7.4, "unit": "µM"}, {"measurement": "Activity", "setting": "Mus musculus", "result": "Toxic"}, {"measurement": "IC50", "setting": "MDA-MB-435", "result": 0.4, "unit": "µM"}]}]}
